Assay [1] relates to human ovarian cancer cells. Particulars: cited from earlier work.
In assay [2] the test system is RIAZ. Kind of assay: Localization of GFP/RIAZ in HTB-46 cells cotransfected with RIα (fluorescence microscopy). In kind it is cell-based, human. Particulars: HTB-46 cells cotransfected with RIα and GFP/RIAZ; cAMP for 8 hr. Here is the method: FIG. 10 depicts the effect of RIα and cAMP on localization of RIAZ. GJP fusions at the N-terminus (GFP/RIAZ) and the C-terminus (RIAZ/GFP) were generated. […] Localization of GFP/RIAZ on co-transfection with RIα is redistributed to the nucleus on addition of cAMP(Panel D). In more detail, nuclear localization of RIAZ and regulation of its localization by RIα in the presence or absence of cAMP was performed as follows: (A,B) HTB-46 cells were plated the night before and then transfected with GFP/RIAZ the following day. Localization of RIAZ was visualized 24 hr after transfection using a fluorescence microscope. (C) HTB-46 cells were cotransfected with RIα and GFP/RIAZ in the absence of cAMP. (D) RIAZ distribution after addition of cAMP for 8 hr.
To further understand the mechanisms of interaction of RIα with RIAZ, we constructed a hybrid protein between RIAZ and the green fluorescence protein (GFP), with GFP fused to either the N-terminal (GFP/RIAZ) or the C-terminal (RIAZ/GFP) end of RIAZ. Distribution of RIAZ was visualized using a Zeiss Axioskop fluorescence microscope. […] Even though the nuclear localization of RIAZ was not affected by the position of GFP either at the amino or the carboxy terminal end of RIAZ, however, whether the transcriptional activity of RIAZ may be affected remains to be determined. […]

Assay [3] deals with human bladder cancer and human testicular embryonal germ cell carcinoma. Particulars: simultaneous cisplatin and dipyridamole; high concentrations of dipyridamole; cited from earlier work.
Assay [4] addresses T1, RIα (Homo sapiens, UniProt P10644).
T1 construct: made in house; host or cells: E. coli (GST-RIα); RIAZ made by in vitro translation
Briefly: Binding of in vitro-translated RIAZ to immobilized GST-RIα (pull down). Particulars: [35S]methionine labeled RIAZ; GST as control. The method, then:
FIG. 8. Binding of in-vitro translated RIAZ protein to RIα. GST and GST-RIα proteins were immobilized on glutathione resins and then incubated with [^35S]methinine labeled RIAZ. The complexes were thoroughly washed and eluted in gel-loading buffer, separated by SDS-PAGE, and exposed to X-ray film.
Deletion of a cluster of ATG in the 5′ end of the RIAZ cDNA seemed to enhance translation from the putative ATG start codon of the open reading frame that encode the BTB-POZ domain zinc finger. […] In addition, based on the functions of other BTB-POZ zinc finger proteins in this family, which play various roles in apoptosis, transcription repression, and regulation of cell proliferation, we speculate that RIAZ may have a role in these important cellular functions. Since the emergence of drug resistance in cancer is also intimately influenced by apoptosis, alterations in cellular transcription programs and tumorigenesis, therefore, it is conceivable that RIα mediated drug resistance may be executed through the actions of RIAZ. Biochemical and molecular characterizations of the interaction of RIAZ with RI and its function and significance in drug resistance may yield insights into the mechanisms of this novel cAMP signaling pathway.

T1 sequence (P10644 whole entry): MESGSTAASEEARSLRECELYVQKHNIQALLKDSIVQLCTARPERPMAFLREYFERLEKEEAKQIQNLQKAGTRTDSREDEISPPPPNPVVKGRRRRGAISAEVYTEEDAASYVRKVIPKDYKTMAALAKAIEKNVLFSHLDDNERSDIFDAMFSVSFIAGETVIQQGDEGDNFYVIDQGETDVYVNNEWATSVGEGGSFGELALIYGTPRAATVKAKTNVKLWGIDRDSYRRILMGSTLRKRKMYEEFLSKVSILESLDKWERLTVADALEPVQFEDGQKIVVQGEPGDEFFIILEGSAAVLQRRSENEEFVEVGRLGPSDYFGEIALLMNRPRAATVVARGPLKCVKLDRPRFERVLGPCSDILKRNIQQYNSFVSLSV

For the molecule `CC(C)Cn1c(=O)n(C)c(=O)c2[nH]cnc21` [3-isobutyl-1-methylxanthine], in assay [1] (treated ovarian carcinoma cells compared to untreated cells), the “effect on cisplatin sensitivity” value is on record as “increase in cisplatin sensitivity”.

Regarding `Nc1ncnc2c1nc(Br)n2[C@@H]1O[C@@H]2COP(=O)(O)O[C@H]2[C@H]1O` [8-Br-cAMP], the “RIAZ subcellular distribution after treatment” value in assay [2] was “translocate to the nucleus”.

As for `OCCN(CCO)c1nc(N2CCCCC2)c2nc(N(CCO)CCO)nc(N3CCCCC3)c2n1` [dipyridamole], the “effect on growth of cisplatin-resistant cells” value in assay [1] (dipyridamole treatment, cisplatin-resistant cells) is on record as “did not affect the growth”. Besides, the “tumor response in combination with cisplatin” value in assay [3] is “complete tumor regression”.

B1: RIAZ: novel BTB-POZ domain zinc finger protein of 641 amino acids, SEQ ID NO: 17 (protein, listed as Homo sapiens)
chain: MERVNDASCGPSGCYTYQVSRHSTEMLHNLNQQRKNGGRFCDVLLRVGDESFPAHRAVLAACSEYFESVFSAQLGDGGAADGGPADVGGATAAPGGGAGGSRELEMHTISSKVFGDILDFAYTSRIVVRLESFPELMTAAKFLLMRSVIEICQEVIKQSNVQILVPPARADIMLFRPPGTSDLGFPLDMTNGAALAANSNGIAGSMQPEEEAARAAGAAIAGQASLPVLPGVDRLPMVAGPLSPQLLTSPFPSVASSAPPLTGKRGRGRPRKANLLDSMFGSPGGLREAGILPCGLCGKVFTDANRLRQHEAQHGVTSLQLGYIDLPPPRLGENGLPISEDPDGPRKRSRTRKQVACEICGKIFRDVYHLNRHKLSHSGEKPYSCPVCGLRFKRKDRMSYHVRSHDGSVGKPYICQSCGKGFSRPDHLNGHIKQVHTSERPHKCQTCNASFATRDRLRSHLACHEDKVPCQVCGKYLRAAYMADHLKKHSEGPSNFCSICNREGQKCSHQDPIESSDSYGDLSDASDLKTPEKQSANGSFSCDMAVPKNKMESDGEKKYPCPECGSFFRSKSYLNKHIQKVHVRALGGPLGDLGPALGSPFSPQQNMSLLESFGFQIVQSAFASSLVDPEVDQQPMGPEGK
As for B1, the “binding to GST-RIα” value in assay [4] is “showed binding to GST-RIα but not to GST control”.

These data come from US7214771B2, “Nucleic acid and protein expression thereby and their involvement in stress” (University of Medicine & Dentistry of New Jersey, priority 1999, dated 2007).
